{"source": "patent US5021439A", "about": "“Cerebral function ameliorating agents related to Tan-950 A” (priority 1988, dated 1991)", "key": {"[1]": {"assay": "Conversion of each component of TAN-950 in aqueous solution (HPLC)", "assay_type": "physicochemical", "conditions": "60° C.", "description": "The mixture of TAN-950A - E was applied to HPLC in order to isolate each component thereof and each component was isolated as approximately single peak compound."}, "[2]": {"tested_on": "glutamate receptor (NMDA type, Quisqualate type and Kainate type)", "assay": "Affinity for the glutamate receptors of the brain, 3 sub-types taken together", "assay_type": "binding, rat", "conditions": "summary of Table 5"}, "Kainate-type receptor": {"molecular_target": "Kainate-type receptor", "assay": "Binding assay of Kainate-type receptor (3H-kainic acid) on rat forebrain crude synaptic membrane"}, "[3]": {"molecular_target": "Quisqualate-type receptor", "assay": "Binding assay of Quisqualate-type receptor (3H-AMPA) on rat forebrain crude synaptic membrane"}, "Solubility": {"assay": "Solubility", "assay_type": "physicochemical"}, "[4]": {"tested_on": "neurons of rat hippocampus", "assay": "Excitatory action on neurons of rat hippocampus in vitro (CA1 spike recording in slices)", "assay_type": "cell-based", "conditions": "rat hippocampal slices, CA1 pyramidal cell layer, Krebs-Ringer solution 33° C., read-out: Minimum effective concentration to induce firing of hippocampus nervous cell", "procedure": "Male Wister rats (body weight: 300 -350 g) were used in the test. After cutting the head of rats, the brain was quickly taken out and […] thickness of the sliced samples of a hippocampus was prepared by a slice cutter. These samples were incubated in a nutrient solution (Krebs-Ringer solution, 33° C.) saturated with a mixed gas of 95% of oxygen gas and 5% of carbon dioxide gas for one or more hours. The test was carried out in the perfusion cisterna with perfusing at the flow speed of 1.5 ml/min. The action potential (spike) in CA1 pyramidal cell layer of the hippocampus was recorded extracellularlly by using a glass electrode filled with 2M NaCl solution. The test compounds were added to the perfusate and the change in number of the spikes with passage of time was counted by a pulse counter and recorded on the recorder. The Krebs-Ringer's solution contains 124 mM of NaCl, 5 mM of KCl, 1.24 mM of KH2 PO4, 1.3 mM of MgSO4, 2.4 mM of CaCL2, 26 mM of […] and 10 mM of glucose."}, "NMDA-type receptor": {"molecular_target": "NMDA-type receptor", "assay": "Binding assay of NMDA-type receptor (3H-CPP) on rat forebrain crude synaptic membrane", "conditions": "10 nM 3H-CPP, pH 7.1, 0° C., 15 min; read-out: Affinity to NMDA-type receptor (3H-CPP), IC50"}, "Acute toxicity in mouse": {"assay": "Acute toxicity in mouse", "conditions": "in vivo, any administration routes (iv, ip, sc, po)"}, "[5]": {"conditions": "starting material heated in aqueous solution, 1 hour"}}, "note": "Read-outs that look alike come from different tables or passages of the source."}
{"compound": "N[C@@H](Cc1c[nH]oc1=O)C(=O)O", "note": "[Compound 1, TAN-950A]", "values": [{"measurement": "Conversion in aqueous solution (in words)", "setting": "[1]; aqueous solution", "result": "converted mainly to TAN-950B and D, but slightly to TAN-950C and E"}, {"measurement": "TAN-950A in resulting substance, area percentage by HPLC", "setting": "[1]; [5]", "result": 63.8, "unit": "%"}, {"measurement": "TAN-950B in resulting substance, area percentage by HPLC", "setting": "[1]; [5]", "result": 13.0, "unit": "%"}, {"measurement": "TAN-950C in resulting substance, area percentage by HPLC", "setting": "[1]; [5]", "result": 5.7, "unit": "%"}, {"measurement": "TAN-950D in resulting substance, area percentage by HPLC", "setting": "[1]; [5]", "result": 12.1, "unit": "%"}, {"measurement": "TAN-950E in resulting substance, area percentage by HPLC", "setting": "[1]; [5]", "result": 3.1, "unit": "%"}, {"measurement": "Affinity to the 3 sub-type receptors (in words)", "setting": "[2]", "result": "high affinities to the 3 sub-type receptors"}, {"measurement": "Affinity to Kainate-type receptor (3H-KA), IC50", "setting": "Kainate-type receptor; 2 nM 3H-Kainic acid, pH 7.1, 0° C., 90 min", "result": 3.6, "unit": "µM"}, {"measurement": "Affinity to the Kainate-type-receptor (in words)", "setting": "Kainate-type receptor; summary of Table 5", "result": "strong affinity"}, {"measurement": "IC50", "setting": "[3]; 5 nM 3H-AMPA, pH 7.1, 0° C., 90 min, read-out: Affinity to Quisqulate-type receptor (3H-AMPA), IC50", "result": 0.28, "unit": "µM"}, {"measurement": "Affinity to the Quisqualate-type-receptor (in words)", "setting": "[3]; summary of Table 5", "result": "strong affinity"}, {"measurement": "Solubility in acetone", "setting": "Solubility; acetone", "result": "Sparingly soluble"}, {"measurement": "Solubility in chloroform", "setting": "Solubility; chloroform", "result": "Sparingly soluble"}, {"measurement": "Solubility in dimethylsulfoxide", "setting": "Solubility; dimethylsulfoxide", "result": "Soluble"}, {"measurement": "Solubility in ethyl acetate", "setting": "Solubility; ethyl acetate", "result": "Sparingly soluble"}, {"measurement": "Solubility in methanol", "setting": "Solubility; methanol", "result": "Soluble"}, {"measurement": "Solubility in water", "setting": "Solubility; water", "result": "Soluble"}, {"measurement": "minimal effective concentration", "setting": "[4]; Rattus norvegicus, Neuron", "result": "≥ 300", "unit": "µM"}, {"measurement": "minimal effective concentration", "setting": "[4]; listed as 1 (sodium salt)", "result": 300, "unit": "µM"}, {"measurement": "IC50", "setting": "NMDA-type receptor", "result": 19, "unit": "µM"}, {"measurement": "LD50", "setting": "Acute toxicity in mouse", "result": "> 4000", "unit": "mg/kg"}]}
